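Growth conditions: 96-well plates. Treatment: test compound, 48 hours, 5 concentrations. Analysis: linear interpolation between bracketing concentrations; unreached endpoints set to highest concentration. GI50 marks 50% less growth. The concentration for full growth arrest is given as TGI.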
Assays:
Assay in all cases: NCI tumour cell line growth inhibition, 48 h
786-0 renal = tested on: 786-0 renal
A498 renal = tested on: A498 renal
A549 NSCLC = tested on: A549 NSCLC
ACHN renal = tested on: ACHN renal
BT-549 breast = tested on: BT-549 breast
CAKI-1 renal = tested on: CAKI-1 renal
CCRF-CEM leukemia = tested on: CCRF-CEM leukemia
COLO 205 colon = tested on: COLO 205 colon
DU-145 prostate = tested on: DU-145 prostate
EKVX NSCLC = tested on: EKVX NSCLC
HCC-2998 colon = tested on: HCC-2998 colon
HCT-116 colon = tested on: HCT-116 colon
HCT-15 colon = tested on: HCT-15 colon
HL-60(TB) leukemia = tested on: HL-60(TB) leukemia
HOP-62 NSCLC = tested on: HOP-62 NSCLC
HOP-92 NSCLC = tested on: HOP-92 NSCLC
HS 578T breast = tested on: HS 578T breast
HT29 colon = tested on: HT29 colon
IGROV1 ovarian = tested on: IGROV1 ovarian
K-562 leukemia = tested on: K-562 leukemia
KM12 colon = tested on: KM12 colon
M14 melanoma = tested on: M14 melanoma
MALME-3M melanoma = tested on: MALME-3M melanoma
MCF7 breast = tested on: MCF7 breast
MDA-MB-231 breast = tested on: MDA-MB-231 breast
MDA-MB-435 = tested on: MDA-MB-435
MOLT-4 leukemia = tested on: MOLT-4 leukemia
NCI-H226 lung = tested on: NCI-H226 lung
NCI-H23 lung = tested on: NCI-H23 lung
NCI-H460 lung = tested on: NCI-H460 lung
NCI-H522 lung = tested on: NCI-H522 lung
NCI/ADR-RES ovarian = tested on: NCI/ADR-RES ovarian
OVCAR-3 ovarian = tested on: OVCAR-3 ovarian
OVCAR-4 ovarian = tested on: OVCAR-4 ovarian
OVCAR-5 ovarian = tested on: OVCAR-5 ovarian
PC-3 prostate = tested on: PC-3 prostate
RPMI-8226 leukemia = tested on: RPMI-8226 leukemia
RXF 393 renal = tested on: RXF 393 renal
SF-268 CNS = tested on: SF-268 CNS
SF-295 CNS = tested on: SF-295 CNS
SF-539 CNS = tested on: SF-539 CNS
SK-MEL-2 melanoma = tested on: SK-MEL-2 melanoma
SK-MEL-28 melanoma = tested on: SK-MEL-28 melanoma
SK-MEL-5 melanoma = tested on: SK-MEL-5 melanoma
SK-OV-3 ovarian = tested on: SK-OV-3 ovarian
SN12C renal = tested on: SN12C renal
SNB-19 CNS = tested on: SNB-19 CNS
SNB-75 CNS = tested on: SNB-75 CNS
SR leukemia = tested on: SR leukemia
T-47D breast = tested on: T-47D breast
TK-10 renal = tested on: TK-10 renal
U251 CNS = tested on: U251 CNS
UACC-257 melanoma = tested on: UACC-257 melanoma
UACC-62 melanoma = tested on: UACC-62 melanoma
UO-31 renal = tested on: UO-31 renal

COc1ccc(-c2nnc(N3CCN(C(=O)CN4CCN(c5ccc(OC)cc5)CC4)CC3)nc2-c2ccc(OC)cc2)cc1
GI50 (786-0 renal): 15.3 µM
TGI (786-0 renal): 40.6 µM
GI50 (A498 renal): 25.8 µM
TGI (A498 renal): 50.4 µM
GI50 (A549 NSCLC): 25.6 µM
TGI (A549 NSCLC): > 100 µM
GI50 (ACHN renal): 18.1 µM
TGI (ACHN renal): 50.8 µM
GI50 (BT-549 breast): 3.53 µM
TGI (BT-549 breast): 24 µM
GI50 (CAKI-1 renal): 15.5 µM
TGI (CAKI-1 renal): 51.1 µM
GI50 (CCRF-CEM leukemia): 3.02 µM
TGI (CCRF-CEM leukemia): 6.06 µM
GI50 (COLO 205 colon): 6.36 µM
TGI (COLO 205 colon): 29.7 µM
GI50 (DU-145 prostate): 12.2 µM
TGI (DU-145 prostate): 26.5 µM
GI50 (EKVX NSCLC): 7.86 µM
TGI (EKVX NSCLC): > 65.9 µM
GI50 (HCC-2998 colon): 18.8 µM
TGI (HCC-2998 colon): 47.2 µM
GI50 (HCT-116 colon): 1.71 µM
TGI (HCT-116 colon): 3.11 µM
GI50 (HCT-15 colon): 6.96 µM
TGI (HCT-15 colon): 34.6 µM
GI50 (HL-60(TB) leukemia): 1.88 µM
TGI (HL-60(TB) leukemia): 6.5 µM
GI50 (HOP-62 NSCLC): 16.5 µM
TGI (HOP-62 NSCLC): 44 µM
GI50 (HOP-92 NSCLC): 16.1 µM
TGI (HOP-92 NSCLC): 35.2 µM
GI50 (HS 578T breast): 2.84 µM
TGI (HS 578T breast): 9.2 µM
GI50 (HT29 colon): 3.39 µM
TGI (HT29 colon): 10.8 µM
GI50 (IGROV1 ovarian): 6.7 µM
TGI (IGROV1 ovarian): > 78.6 µM
GI50 (K-562 leukemia): 2.14 µM
TGI (K-562 leukemia): 4.44 µM
GI50 (KM12 colon): 2.93 µM
TGI (KM12 colon): 8.4 µM
GI50 (M14 melanoma): 2.6 µM
TGI (M14 melanoma): 6.28 µM
GI50 (MALME-3M melanoma): 3.17 µM
TGI (MALME-3M melanoma): 23.1 µM
GI50 (MCF7 breast): 1.76 µM
TGI (MCF7 breast): 3.56 µM
GI50 (MDA-MB-231 breast): 11.7 µM
TGI (MDA-MB-231 breast): 41.2 µM
GI50 (MDA-MB-435): 4.01 µM
TGI (MDA-MB-435): > 55.9 µM
GI50 (MOLT-4 leukemia): 1.63 µM
TGI (MOLT-4 leukemia): 3.8 µM
GI50 (NCI-H226 lung): 5.53 µM
TGI (NCI-H226 lung): 34.5 µM
GI50 (NCI-H23 lung): 9.73 µM
TGI (NCI-H23 lung): 33.4 µM
GI50 (NCI-H460 lung): 15.4 µM
TGI (NCI-H460 lung): > 62.3 µM
GI50 (NCI-H522 lung): 3.32 µM
TGI (NCI-H522 lung): 9.25 µM
GI50 (NCI/ADR-RES ovarian): 9.89 µM
TGI (NCI/ADR-RES ovarian): 31.9 µM
GI50 (OVCAR-3 ovarian): 2.1 µM
TGI (OVCAR-3 ovarian): 4 µM
GI50 (OVCAR-4 ovarian): 3.47 µM
TGI (OVCAR-4 ovarian): 12.5 µM
GI50 (OVCAR-5 ovarian): 27.6 µM
TGI (OVCAR-5 ovarian): 53.1 µM
GI50 (PC-3 prostate): 8.49 µM
TGI (PC-3 prostate): 26.9 µM
GI50 (RPMI-8226 leukemia): 2.37 µM
TGI (RPMI-8226 leukemia): 6.5 µM
GI50 (RXF 393 renal): 5.38 µM
TGI (RXF 393 renal): 38.8 µM
GI50 (SF-268 CNS): 3.62 µM
TGI (SF-268 CNS): 14.2 µM
GI50 (SF-295 CNS): 20.3 µM
TGI (SF-295 CNS): > 72.1 µM
GI50 (SF-539 CNS): 14.1 µM
TGI (SF-539 CNS): 33.2 µM
GI50 (SK-MEL-2 melanoma): 10.2 µM
TGI (SK-MEL-2 melanoma): 44.1 µM
GI50 (SK-MEL-28 melanoma): 13.4 µM
TGI (SK-MEL-28 melanoma): 34.6 µM
GI50 (SK-MEL-5 melanoma): 2.4 µM
TGI (SK-MEL-5 melanoma): 6.83 µM
GI50 (SK-OV-3 ovarian): 20.8 µM
TGI (SK-OV-3 ovarian): 45 µM
GI50 (SN12C renal): 3.2 µM
TGI (SN12C renal): 15.5 µM
GI50 (SNB-19 CNS): 20.7 µM
TGI (SNB-19 CNS): 46.4 µM
GI50 (SNB-75 CNS): 15.6 µM
TGI (SNB-75 CNS): 44.8 µM
GI50 (SR leukemia): 2.1 µM
TGI (SR leukemia): 4.04 µM
GI50 (T-47D breast): 2.78 µM
TGI (T-47D breast): 9.36 µM
GI50 (TK-10 renal): 19 µM
TGI (TK-10 renal): 62.5 µM
GI50 (U251 CNS): 5.31 µM
TGI (U251 CNS): 66.1 µM
GI50 (UACC-257 melanoma): 17.5 µM
TGI (UACC-257 melanoma): 39.5 µM
GI50 (UACC-62 melanoma): 12.1 µM
TGI (UACC-62 melanoma): 53.1 µM
GI50 (UO-31 renal): 12.5 µM
TGI (UO-31 renal): 39.7 µM
